Patent publication US9758538B2, “Pyrimidine derivatives” (PFIZER INC., priority 2015, dated 2017)

These compounds were tested against truncated PI3Kα (p110α/iSH2 p85α), PI3KA_Act (Homo sapiens (Human), UniProt P42336) (assay: PI3Kα biochemical kinase assay, fluorescence polarization format (PI3KA_Act)). Conditions: 0.5 nM p110α/iSH2 p85, 1 mM ATP, 30 μM PIP2, 15-min preincubation; Morrison equation fit; read-out: PI3KA_Act Ki.
In short: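 Enzyme: His-tagged p110α/p85α niSH2 complex from Sf21 baculovirus expression, IMAC-purified, tag cleaved, then SEC. Reactions ran 30 min at room temperature, stopped with 10 mM EDTA pH 8 (final), and were read by fluorescence polarization.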

truncated PI3Kα (p110α/iSH2 p85α), PI3KA_Act, sequence (P42336 whole entry, the tested form may be a part): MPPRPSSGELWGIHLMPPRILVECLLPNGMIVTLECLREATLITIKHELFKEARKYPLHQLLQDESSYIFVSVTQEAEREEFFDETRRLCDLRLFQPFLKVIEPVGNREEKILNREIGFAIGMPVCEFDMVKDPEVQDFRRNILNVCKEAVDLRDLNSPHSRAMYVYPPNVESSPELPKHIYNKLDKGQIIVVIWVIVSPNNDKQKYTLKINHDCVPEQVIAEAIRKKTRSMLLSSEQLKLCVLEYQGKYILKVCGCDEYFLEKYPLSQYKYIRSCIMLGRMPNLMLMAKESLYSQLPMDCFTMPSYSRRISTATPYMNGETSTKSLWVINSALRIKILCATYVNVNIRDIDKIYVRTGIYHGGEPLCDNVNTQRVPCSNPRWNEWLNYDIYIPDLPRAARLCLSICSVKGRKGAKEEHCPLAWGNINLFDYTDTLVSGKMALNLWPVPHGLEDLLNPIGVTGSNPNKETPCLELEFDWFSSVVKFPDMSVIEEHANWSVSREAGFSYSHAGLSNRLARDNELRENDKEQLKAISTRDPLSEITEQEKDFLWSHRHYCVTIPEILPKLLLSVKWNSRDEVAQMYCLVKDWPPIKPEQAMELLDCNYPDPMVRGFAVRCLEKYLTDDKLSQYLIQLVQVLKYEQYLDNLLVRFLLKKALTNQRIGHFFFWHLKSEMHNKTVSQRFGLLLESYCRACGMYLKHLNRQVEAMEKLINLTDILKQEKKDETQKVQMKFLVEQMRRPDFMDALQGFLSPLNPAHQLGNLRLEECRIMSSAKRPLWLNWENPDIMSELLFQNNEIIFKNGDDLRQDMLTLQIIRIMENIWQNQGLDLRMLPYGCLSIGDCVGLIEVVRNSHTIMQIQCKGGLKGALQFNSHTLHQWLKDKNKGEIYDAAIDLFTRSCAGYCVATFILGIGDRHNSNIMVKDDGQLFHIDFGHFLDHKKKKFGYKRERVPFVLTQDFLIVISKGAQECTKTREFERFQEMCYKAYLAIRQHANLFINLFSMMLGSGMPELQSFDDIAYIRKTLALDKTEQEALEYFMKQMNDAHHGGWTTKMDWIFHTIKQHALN

| Compound | Ki |
| --- | --- |
| CC(=O)N1CCC[C@](CO)(Nc2nc(N3CCOCC3)nc(-c3cnc(N)nc3)c2F)C1 [Example 153, 1-[(3S)-3-{[2′-amino-5-fluoro-2-(morpholin-4-yl)-4,5′-bipyrimidin-6-yl]amino}-3-(hydroxymethyl)piperidin-1-yl]ethanone] | 0.849 nM |
| CN1CCC(N2CC[C@](CO)(Nc3cc(-c4cnc(N)nc4)nc(N4CCOCC4)n3)C2)C1=O (stereo partly drawn) [Example 76, (3S)-3-{[2′-amino-2-(morpholin-4-yl)-4,5′-bipyrimidin-6-yl]amino}-3-(hydroxymethyl)-1′-methyl-1,3′-bipyrrolidin-2′-one] | 1.82 nM |
| Nc1ncc(-c2nc(N3CCOCC3)nc(N[C@]3(CO)CCCN(C(=O)C4(F)CC4)C3)c2F)cn1 (single isomer, unassigned) [Example 158] | 0.627 nM |
| COCC(=O)N1CCC[C@](CO)(Nc2nc(N3CCOCC3)nc(-c3cnc(N)nc3)c2F)C1 [Example 150, 1-[(3S)-3-{[2′-amino-5-fluoro-2-(morpholin-4-yl)-4,5′-bipyrimidin-6-yl]amino}-3-(hydroxymethyl)piperidin-1-yl]-2-methoxyethanone] | 0.8 nM |
| C[C@@]1(Nc2cc(-c3cnc(N)nc3)nc(N3CCOCC3)n2)CCN(S(C)(=O)=O)C1 [Example 12, N˜6˜-[(3R)-3-methyl-1-(methylsulfonyl)pyrrolidin-3-yl]-2-(morpholin-4-yl)-4,5′-bipyrimidine-2′,6-diamine] | 1.29 nM |
| CC1(OC(=O)N2CC[C@](CO)(Nc3cc(-c4cnc(N)nc4)nc(N4CCOCC4)n3)C2)CC1 [Example 47, 1-methylcyclopropyl (3S)-3-{[2′-amino-2-(morpholin-4-yl)-4,5′-bipyrimidin-6-yl]amino}-3-(hydroxymethyl)pyrrolidine-1-carboxylate] | 0.025 nM |
| Nc1ncc(-c2cc(N[C@@]3(CO)CCN(C(=O)[C@@H](O)c4ccccc4)C3)nc(N3CCOCC3)n2)cn1 [Example 60, (2S)-1-[(3S)-3-{[2′-amino-2-(morpholin-4-yl)-4,5′-bipyrimidin-6-yl]amino}-3-(hydroxymethyl)pyrrolidin-1-yl]-2-hydroxy-2-phenylethanone] | 12.7 nM |
| COC(=O)N1CC[C@](CO)(Nc2cc(-c3cnc(N)nc3)nc(N3CCOCC3)n2)C1 [Example 34, methyl (3S)-3-{[2′-amino-2-(morpholin-4-yl)-4,5′-bipyrimidin-6-yl]amino}-3-(hydroxymethyl)pyrrolidine-1-carboxylate] | 0.019 nM |
| C[C@H]1COCCN1c1nc(N[C@@]2(CO)CCNC2)c(F)c(-c2cnc(N)nc2)n1 [Example 112, [(3S)-3-({2′-amino-5-fluoro-2-[(3S)-3-methylmorpholin-4-yl]-4,5′-bipyrimidin-6-yl}amino)pyrrolidin-3-yl]methanol] | 1.01 nM |
| CCC(=O)N1CCC[C@](CO)(Nc2nc(N3CCOCC3)nc(-c3cnc(N)nc3)c2F)C1 [Example 146, 1-[(3S)-3-{[2′-amino-5-fluoro-2-(morpholin-4-yl)-4,5′-bipyrimidin-6-yl]amino}-3-(hydroxymethyl)piperidin-1-yl]propan-1-one] | 0.237 nM |
| Cc1ncc(-c2cc(N[C@@]3(CO)CCN(C(=O)OC(C)(C)C)C3)nc(N3CCOCC3)n2)cc1F [Example 127, tert-butyl (3S)-3-{[6-(5-fluoro-6-methylpyridin-3-yl)-2-(morpholin-4-yl)pyrimidin-4-yl]amino}-3-(hydroxymethyl)pyrrolidine-1-carboxylate] | 19 nM |
| Nc1ncc(-c2cc(N[C@@]3(CO)CCN(C4CCCNC4=O)C3)nc(N3CCOCC3)n2)cn1 (stereo partly drawn) [Example 88, 3-[(3S)-3-{[2′-amino-2-(morpholin-4-yl)-4,5′-bipyrimidin-6-yl]amino}-3-(hydroxymethyl)pyrrolidin-1-yl]piperidin-2-one] | 0.682 nM |
| Nc1ncc(-c2cc(N[C@@]3(CO)CCN(C(=O)NCC(F)F)C3)nc(N3CCOCC3)n2)cn1 [Example 131, (3S)-3-{[2′-amino-2-(morpholin-4-yl)-4,5′-bipyrimidin-6-yl]amino}-N-(2,2-difluoroethyl)-3-(hydroxymethyl)pyrrolidine-1-carboxamide] | 0.205 nM |
| CS(=O)(=O)N1CC[C@](CO)(Nc2cc(-c3cnc(N)nc3)nc(N3CCOCC3)n2)C1 [Example 33, [(3S)-3-{[2′-amino-2-(morpholin-4-yl)-4,5′-bipyrimidin-6-yl]amino}-1-(methylsulfonyl)pyrrolidin-3-yl]methanol] | 0.3 nM |
| COC(=O)N1CC[C@](CO)(Nc2cc(-c3cnc(N)nc3)nc(N3CCOC[C@@H]3C)n2)C1 [Example 65, methyl (3S)-3-({2′-amino-2-[(3S)-3-methylmorpholin-4-yl]-4,5′-bipyrimidin-6-yl}amino)-3-(hydroxymethyl)pyrrolidine-1-carboxylate] | < 0.018 nM |
| CCOC(=O)N1CC[C@](CO)(Nc2nc(-c3cnc(N)nc3)nc(N3CCOCC3)n2)C1 [Example 82, ethyl (3S)-3-{[4-(2-aminopyrimidin-5-yl)-6-(morpholin-4-yl)-1,3,5-triazin-2-yl]amino}-3-(hydroxymethyl)pyrrolidine-1-carboxylate] | 0.027 nM |
| C[C@H]1COCCN1c1nc(N[C@@]2(CO)CCN(C(=O)OC3CC3)C2)cc(-c2cnc(N)nc2)n1 [Example 102, cyclopropyl (3S)-3-({2′-amino-2-[(3S)-3-methylmorpholin-4-yl]-4,5′-bipyrimidin-6-yl}amino)-3-(hydroxymethyl)pyrrolidine-1-carboxylate] | < 0.018 nM |
| CN(C)C(=O)CN1CC[C@](CO)(Nc2cc(-c3cnc(N)nc3)nc(N3CCOCC3)n2)C1 [Example 100, 2-[(3S)-3-{[2′-amino-2-(morpholin-4-yl)-4,5′-bipyrimidin-6-yl]amino}-3-(hydroxymethyl)pyrrolidin-1-yl]-N,N-dimethylacetamide] | 1.48 nM |
| CC[C@@]1(Nc2cc(-c3cnc(N)nc3)nc(N3CCOCC3)n2)CCN(C(=O)C2(F)CC2)C1 [Example 94, [(3R)-3-{[2′-amino-2-(morpholin-4-yl)-4,5′-bipyrimidin-6-yl]amino}-3-ethylpyrrolidin-1-yl](1-fluorocyclopropyl)methanone] | 0.631 nM |
| CN(c1cc(-c2cnc(N)nc2)nc(N2CCOCC2)n1)C1(CO)CCN(C(=O)OC(C)(C)C)C1 (stereo not drawn) [Example 25, tert-butyl 3-{[2′-amino-2-(morpholin-4-yl)-4,5′-bipyrimidin-6-yl](methyl)amino}-3-(hydroxymethyl)pyrrolidine-1-carboxylate] | 0.049 nM |
| C[C@H]1COCCN1c1nc(N[C@@]2(C)CCN(C(=O)OC(C)(C)C)C2)cc(-c2cnc(N)nc2)n1 [Example 19, tert-butyl (3S)-3-({2′-amino-2-[(3S)-3-methylmorpholin-4-yl]-4,5′-bipyrimidin-6-yl}amino)-3-methylpyrrolidine-1-carboxylate] | 0.158 nM |
